Values joined by “and” are separate entries in the source; they are usually repeats but may differ in a detail not shown here. Identical values can stand only once.
Conditions: for vapor or sublimation pressure: Transpiration method; for Triple point temperature: DTA

F[B-](F)(F)F.[Cs+] [cesium tetrafluoroborate]
Crystal 1
Conditions	vapor or sublimation pressure
586 K	3.63e-05 kPa
592 K	4.17e-05 kPa
602 K	6.62e-05 kPa
608 K	8.43e-05 kPa
611 K	8.34e-05 kPa
623 K	0.0001414 kPa
627 K	0.0001287 kPa [middle of 4 runs]
634 K	0.0001822 kPa
648 K	0.0002611 kPa
654 K	0.0003472 kPa
666 K	0.0003572 kPa
682 K	0.0005593 kPa
692 K	0.0007727 kPa
703 K	0.0008954 kPa
705 K	0.000949 kPa

Conditions	Triple point temperature [K]
Crystal 2	442

F[B-](F)(F)F.[Rb+] [rubidium tetrafluoroborate]
Crystal 1
Conditions	vapor or sublimation pressure
550 K	3.93e-05 kPa
555 K	5.32e-05 kPa
566 K	6.47e-05 kPa
576 K	9.73e-05 kPa
581 K	9.94e-05 kPa
592 K	0.0001394 kPa
602 K	0.0001641 kPa
613 K	0.0002173 kPa
622 K	0.0002867 kPa and 0.000287 kPa and 0.0002854 kPa
629 K	0.0003005 kPa
641 K	0.0004209 kPa
655 K	0.0005109 kPa
676 K	0.0007892 kPa
697 K	0.001082 kPa

Conditions	Triple point temperature [K]
Crystal 2	527

F[B-](F)(F)F.[Na+] [sodium tetrafluoroborate]
vapor or sublimation pressure
Conditions	Crystal 1	Crystal 2
483 K	–	0.0002215 kPa
493 K	–	0.0003008 kPa
498 K	–	0.0003479 kPa
503 K	–	0.0003963 kPa
519 K	0.0006401 kPa	0.0006401 kPa
523 K	0.0008727 kPa	–
533 K	0.001184 kPa	–
544 K	0.001662 kPa	–
545 K	0.001475 kPa	–
554 K	0.001848 kPa [middle of 5 runs]	–
566 K	0.002561 kPa	–
575 K	0.002638 kPa	–
576 K	0.003027 kPa	–
580 K	0.003513 kPa	–
586 K	0.003838 kPa	–
602 K	0.003513 kPa	–
612 K	0.005891 kPa	–
622 K	0.008782 kPa	–
663 K	0.01582 kPa	–

Conditions	Triple point temperature [K]
Crystal 2	519

— the NIST ThermoML archive (doi:10.1016/j.tca.2006.10.008)
